Some results are limits rather than exact numbers.

ROCK2, sequence (O75116 whole entry, species assumed): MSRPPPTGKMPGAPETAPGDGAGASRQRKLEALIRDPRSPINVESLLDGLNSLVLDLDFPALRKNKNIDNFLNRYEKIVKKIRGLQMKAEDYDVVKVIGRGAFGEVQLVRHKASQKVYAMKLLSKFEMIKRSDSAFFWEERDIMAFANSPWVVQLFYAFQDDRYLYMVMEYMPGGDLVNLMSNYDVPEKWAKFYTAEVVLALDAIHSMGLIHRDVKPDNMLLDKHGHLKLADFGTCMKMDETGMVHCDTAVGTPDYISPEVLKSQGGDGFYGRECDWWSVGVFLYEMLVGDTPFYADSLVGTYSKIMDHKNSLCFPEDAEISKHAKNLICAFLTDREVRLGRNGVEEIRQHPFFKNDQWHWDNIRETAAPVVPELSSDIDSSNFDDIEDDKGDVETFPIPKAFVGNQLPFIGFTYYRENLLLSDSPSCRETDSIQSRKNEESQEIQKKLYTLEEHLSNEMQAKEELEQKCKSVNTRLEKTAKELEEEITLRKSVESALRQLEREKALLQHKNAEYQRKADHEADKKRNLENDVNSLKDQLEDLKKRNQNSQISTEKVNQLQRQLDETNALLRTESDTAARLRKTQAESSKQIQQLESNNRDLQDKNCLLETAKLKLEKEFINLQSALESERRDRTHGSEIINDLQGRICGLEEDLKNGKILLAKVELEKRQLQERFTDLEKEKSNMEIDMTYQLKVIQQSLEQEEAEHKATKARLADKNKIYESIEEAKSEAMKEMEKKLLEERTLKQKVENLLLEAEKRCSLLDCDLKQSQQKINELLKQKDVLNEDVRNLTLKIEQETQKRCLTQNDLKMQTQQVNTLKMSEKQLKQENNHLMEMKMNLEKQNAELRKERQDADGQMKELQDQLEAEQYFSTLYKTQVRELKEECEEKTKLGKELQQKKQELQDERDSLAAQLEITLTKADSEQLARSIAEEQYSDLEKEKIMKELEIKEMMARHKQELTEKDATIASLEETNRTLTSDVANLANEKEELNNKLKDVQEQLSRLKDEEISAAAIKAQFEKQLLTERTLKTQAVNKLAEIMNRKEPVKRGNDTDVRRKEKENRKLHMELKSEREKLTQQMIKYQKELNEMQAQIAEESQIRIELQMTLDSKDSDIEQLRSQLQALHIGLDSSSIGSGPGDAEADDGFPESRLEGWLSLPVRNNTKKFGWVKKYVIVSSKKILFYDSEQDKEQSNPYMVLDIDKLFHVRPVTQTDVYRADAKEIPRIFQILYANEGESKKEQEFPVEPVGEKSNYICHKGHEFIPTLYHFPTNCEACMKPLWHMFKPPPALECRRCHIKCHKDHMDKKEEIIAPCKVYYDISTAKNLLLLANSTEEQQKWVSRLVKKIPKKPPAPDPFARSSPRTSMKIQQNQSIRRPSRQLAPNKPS

The experiment deals with ROCK2 (Homo sapiens (Human), UniProt O75116). Description: ROCK2 assay (peptide phosphorylation, LABCHIP 3000 Reader). The experiment is classed as biochemical. The conditions noted are these: 5 μM ATP, 1.5 μM peptide substrate. The procedure, abridged:
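Human ROCK2 reaction in 20 mM HEPES pH 7.5, 20 mM MgCl2, 0.015% Brij-35, 4 mM DTT, with 5 μM ATP and 1.5 μM FITC-labelled peptide, DMSO <2%. Stopped with EDTA; phosphorylated and unphosphorylated peptide separated by microfluidic mobility shift. IC50 from dose-response curve fit.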
By IC50 is commonly meant the concentration needed to halve the response being measured. Read a low IC50 as higher potency. As for `COc1cccc(Cn2c(CN3CCOCC3)nn(-c3ccc(-c4cn[nH]c4)cc3)c2=O)c1` [Example 143, 1-(4-(1H-pyrazol-4-yl)phenyl)-4-(3-methoxybenzyl)-3-(morpholinomethyl)-1H-1,2,4-triazol-5(4H)-one], the half-inhibitory concentration (IC50) lay in the range of 5 to 50 nM.

`COc1cc(F)cc(Cn2c(CO)nn(-c3ccc(-c4cn[nH]c4)cc3)c2=O)c1` [Example 144, 1-(4-(1H-pyrazol-4-yl)phenyl)-4-(3-fluoro-5-methoxybenzyl)-3-(hydroxymethyl)-1H-1,2,4-triazol-5(4H)-one] came in with an IC50 of less than 5 nM. For `COc1cc(F)cc(Cn2c(C(C)(C)O)nn(-c3ccc(-c4cn[nH]c4)cc3)c2=O)c1` [Example 145, 1-(4-(1H-pyrazol-4-yl)phenyl)-4-(3-fluoro-5-methoxybenzyl)-3-(2-hydroxypropan-2-yl)-1H-1,2,4-triazol-5(4H)-one] the value was 5 to 50 nM; for `COc1cccc(Cn2c(CN3CCCC3)nn(-c3ccc(-c4cn[nH]c4)cc3)c2=O)c1` [Example 146, 1-(4-(1H-pyrazol-4-yl)phenyl)-4-(3-methoxybenzyl)-3-(pyrrolidin-1-ylmethyl)-1H-1,2,4-triazol-5(4H)-one], 5 to 50 nM. `COc1cc(F)cc(Cn2c(CN(C)C)nn(-c3ccc(-c4cn[nH]c4)cc3)c2=O)c1` [Example 148, 1-(4-(1H-pyrazol-4-yl)phenyl)-3-((dimethylamino)methyl)-4-(3-fluoro-5-methoxybenzyl)-1H-1,2,4-triazol-5(4H)-one] had an IC50 of 5 to 50 nM. The value for `COc1cc(F)cc(Cn2c(CN3CCOCC3)nn(-c3ccc(-c4cn[nH]c4)cc3)c2=O)c1` [Example 149, 1-(4-(1H-pyrazol-4-yl)phenyl)-4-(3-fluoro-5-methoxybenzyl)-3-(morpholinomethyl)-1H-1,2,4-triazol-5(4H)-one] was 5 to 50 nM. For `COc1cc(F)cc(Cn2c(CN3CCCC3)nn(-c3ccc(-c4cn[nH]c4)cc3)c2=O)c1` [Example 150, 1-(4-(1H-pyrazol-4-yl)phenyl)-4-(3-fluoro-5-methoxybenzyl)-3-(pyrrolidin-1-ylmethyl)-1H-1,2,4-triazol-5(4H)-one] the value was 5 to 50 nM; for `COc1cc(F)cc(Cn2c(CNCCO)nn(-c3ccc(-c4cn[nH]c4)cc3)c2=O)c1` [Example 151, 1-(4-(1H-pyrazol-4-yl)phenyl)-4-(3-fluoro-5-methoxybenzyl)-3-(((2-hydroxyethyl)amino)methyl)-1H-1,2,4-triazol-5(4H)-one], 5 to 50 nM. For `COc1cc(F)cc(Cn2c(CN3CCNCC3)nn(-c3ccc(-c4cn[nH]c4)cc3)c2=O)c1` [Example 152, 1-(4-(1H-pyrazol-4-yl)phenyl)-4-(3-fluoro-5-methoxybenzyl)-3-(piperazin-1-ylmethyl)-1H-1,2,4-triazol-5(4H)-one] the value was 5 to 50 nM. Regarding `COc1cc(F)cc(Cn2c(CNC(C)CO)nn(-c3ccc(-c4cn[nH]c4)cc3)c2=O)c1` (centres unmarked) [Example 153, 1-(4-(1H-pyrazol-4-yl)phenyl)-4-(3-fluoro-5-methoxybenzyl)-3-(((1-hydroxypropan-2-yl)amino)methyl)-1H-1,2,4-triazol-5(4H)-one], the IC50 was 5 to 50 nM. `COc1cc(F)cc(Cn2c(CN3CCC(O)C3)nn(-c3ccc(-c4cn[nH]c4)cc3)c2=O)c1` (centres unmarked) [Example 155, 1-(4-(1H-pyrazol-4-yl)phenyl)-4-(3-fluoro-5-methoxybenzyl)-3-((3-hydroxypyrrolidin-1-yl)methyl)-1H-1,2,4-triazol-5(4H)-one] gave a half-inhibitory concentration (IC50) of 5 to 50 nM. Regarding `COc1cccc(Cn2c(CN3CCC(O)C3)nn(-c3ccc(-c4cn[nH]c4)cc3)c2=O)c1` (centres unmarked) [Example 156, 1-(4-(1H-pyrazol-4-yl)phenyl)-3-((3-hydroxypyrrolidin-1-yl)methyl)-4-(3-methoxybenzyl)-1H-1,2,4-triazol-5(4H)-one], the IC50 fell in the range of 5 to 50 nM.

On to `COc1ccc(F)cc1Cn1c(CO)nn(-c2ccc(-c3cn[nH]c3)cc2)c1=O` [Example 157, 1-(4-(1H-pyrazol-4-yl)phenyl)-4-(5-fluoro-2-methoxybenzyl)-3-(hydroxymethyl)-1H-1,2,4-triazol-5(4H)-one], for which the half-inhibitory concentration (IC50) lay in the range of 50 to 250 nM. As to `COc1cc(Cn2c(CO)nn(-c3ccc(-c4cn[nH]c4)cc3)c2=O)ccc1F` [Example 158, 1-(4-(1H-pyrazol-4-yl)phenyl)-4-(4-fluoro-3-methoxybenzyl)-3-(hydroxymethyl)-1H-1,2,4-triazol-5(4H)-one], the half-inhibitory concentration (IC50) is 5 to 50 nM.

With `COc1ccc(Cn2c(CO)nn(-c3ccc(-c4cn[nH]c4)cc3)c2=O)cc1F` [Example 159, 1-(4-(1H-pyrazol-4-yl)phenyl)-4-(3-fluoro-4-methoxybenzyl)-3-(hydroxymethyl)-1H-1,2,4-triazol-5(4H)-one], the half-maximal inhibitory concentration (IC50) was 250 to 2000 nM. For `COc1cccc(Cn2c(CO)nn(-c3ccc(-c4cn[nH]c4)cc3)c2=O)c1F` [Example 160, 1-(4-(1H-pyrazol-4-yl)phenyl)-4-(2-fluoro-3-methoxybenzyl)-3-(hydroxymethyl)-1H-1,2,4-triazol-5(4H)-one] the value was 250 to 2000 nM; for `COc1cccc(Cn2c(C)nn(-c3ccc(-c4ccnc(N)c4)cc3)c2=O)c1` [Example 161, 1-(4-(2-aminopyridin-4-yl)phenyl)-4-(3-methoxybenzyl)-3-methyl-1H-1,2,4-triazol-5(4H)-one], 50 to 250 nM. With `COc1cccc(Cn2cnn(-c3ccc(-c4ccnc(N)c4)cc3)c2=O)c1` [Example 162, 1-(4-(2-aminopyridin-4-yl)phenyl)-4-(3-methoxybenzyl)-1H-1,2,4-triazol-5(4H)-one], the IC50 fell in the range of 5 to 50 nM. `COc1cccc(Cn2cnn(-c3ccc(-c4ncnc5[nH]ccc45)cc3)c2=O)c1` [Example 163, 1-(4-(7H-pyrrolo[2,3-d]pyrimidin-4-yl)phenyl)-4-(3-methoxybenzyl)-1H-1,2,4-triazol-5(4H)-one] displayed an IC50 of 50 to 250 nM. Turning to `COc1cccc(Cn2c(C)nn(-c3ccc(-c4ncnc5[nH]ccc45)cc3)c2=O)c1` [Example 164, 1-(4-(7H-pyrrolo[2,3-d]pyrimidin-4-yl)phenyl)-4-(3-methoxybenzyl)-3-methyl-1H-1,2,4-triazol-5(4H)-one], the half-maximal inhibitory concentration (IC50) was 250 to 2000 nM. In turn, `COc1cccc(Cn2c(C)nn(-c3ccc(-c4ccnc5[nH]ccc45)cc3)c2=O)c1` [Example 165, 1-(4-(1H-pyrrolo[2,3-b]pyridin-4-yl)phenyl)-4-(3-methoxybenzyl)-3-methyl-1H-1,2,4-triazol-5(4H)-one] displayed a concentration for half-maximal inhibition (IC50) of 5 to 50 nM. `COc1cccc(Cn2c(C)nn(-c3ccc(-c4ccnc(N)n4)cc3)c2=O)c1` [Example 166, 1-(4-(2-aminopyrimidin-4-yl)phenyl)-4-(3-methoxybenzyl)-3-methyl-1H-1,2,4-triazol-5(4H)-one] returned an IC50 of 5 to 50 nM. The molecule `COc1cccc(Cn2cnn(-c3ccc(-c4ccnc5[nH]ccc45)cc3)c2=O)c1` [Example 169, 1-(4-(1H-pyrrolo[2,3-b]pyridin-4-yl)phenyl)-4-(3-methoxybenzyl)-1H-1,2,4-triazol-5(4H)-one] registered an IC50 of less than 5 nM. The value for `COc1cccc(Cn2cnn(-c3ccc(-c4ccnc(N)n4)cc3)c2=O)c1` [Example 170, 1-(4-(2-aminopyrimidin-4-yl)phenyl)-4-(3-methoxybenzyl)-1H-1,2,4-triazol-5(4H)-one] was 5 to 50 nM; that for `COc1cccc(Cn2nnn(-c3ccc(-c4cn[nH]c4)cc3)c2=O)c1` [Example 172, 1-(4-(1H-pyrazol-4-yl)phenyl)-4-(3-methoxybenzyl)-1H-tetrazol-5(4H)-one] was 5 to 50 nM. `O=c1n(Cc2cccc(F)c2)nnn1-c1ccc(-c2cn[nH]c2)cc1` [Example 173, 1-(4-(1H-pyrazol-4-yl)phenyl)-4-(3-fluorobenzyl)-1H-tetrazol-5(4H)-one]: the IC50 is 50 to 250 nM. For `O=c1n(Cc2cc(F)ccc2F)nnn1-c1ccc(-c2cn[nH]c2)cc1` [Example 174, 1-(4-(1H-pyrazol-4-yl)phenyl)-4-(2,5-difluorobenzyl)-1H-tetrazol-5(4H)-one] the value was 50 to 250 nM; for `COc1cc(F)cc(Cn2nnn(-c3ccc(-c4cn[nH]c4)cc3)c2=O)c1` [Example 175, 1-(4-(1H-pyrazol-4-yl)phenyl)-4-(3-fluoro-5-methoxybenzyl)-1H-tetrazol-5(4H)-one], 5 to 50 nM; for `CC(c1ccccc1)n1nnn(-c2ccc(-c3cn[nH]c3)cc2)c1=O` (centres unmarked) [Example 176, 1-(4-(1H-pyrazol-4-yl)phenyl)-4-(1-phenylethyl)-1H-tetrazol-5(4H)-one], 5 to 50 nM. The value for `O=c1n(Cc2ccccc2Cl)nnn1-c1ccc(-c2cn[nH]c2)cc1` [Example 177, 1-(4-(1H-pyrazol-4-yl)phenyl)-4-(2-chlorobenzyl)-1H-tetrazol-5(4H)-one] was 50 to 250 nM; that for `O=c1n(Cc2ccccc2)nnn1-c1ccc(-c2cn[nH]c2)cc1` [Example 178, 1-(4-(1H-pyrazol-4-yl)phenyl)-4-benzyl-1H-tetrazol-5(4H)-one] was 5 to 50 nM. For `COc1cc(-n2nnn(Cc3ccccc3)c2=O)ccc1-c1cn[nH]c1` [Example 179, 1-benzyl-4-(3-methoxy-4-(1H-pyrazol-4-yl)phenyl)-1H-tetrazol-5(4H)-one] the value was 50 to 250 nM. In turn, `COc1cc(-n2nnn(Cc3cccc(F)c3)c2=O)ccc1-c1cn[nH]c1` [Example 180, 1-(3-fluorobenzyl)-4-(3-methoxy-4-(1H-pyrazol-4-yl)phenyl)-1H-tetrazol-5(4H)-one] displayed a half-inhibitory concentration (IC50) of 5 to 50 nM. For `COc1cc(-n2nnn(Cc3cc(F)ccc3F)c2=O)ccc1-c1cn[nH]c1` [Example 181, 1-(2,5-difluorobenzyl)-4-(3-methoxy-4-(1H-pyrazol-4-yl)phenyl)-1H-tetrazol-5(4H)-one] the value was 50 to 250 nM. The value for `COc1cc(F)cc(Cn2nnn(-c3ccc(-c4cn[nH]c4)c(OC)c3)c2=O)c1` [Example 182, 1-(3-fluoro-5-methoxybenzyl)-4-(3-methoxy-4-(1H-pyrazol-4-yl)phenyl)-1H-tetrazol-5(4H)-one] was 5 to 50 nM.
